From patent US20050154060A1, “Anti-inflamatory inhalation pharmaceutical composition” (Galephar Pharmaceutical Research, Inc., priority 2003, published 2005)

What was measured:
interleukine 8 (IL-8) = experiment: Sputum IL-8 in 12-week placebo controlled study of NAL DPI in COPD patients; format: in vivo, human (COPD patients)
Description: (§1) A new clinical trial has been performed with a dry powder inhaler (DPI) formulation of NAL in moderate to severely ill COPD patients. The study was performed with two doses of NAL DPI: 20 mg twice a day and 40 mg twice a day versus placebo.
(§2) The complete title of the study was “A 12-week, multicentre, randomised, double-blind, placebo controlled, pilot study of the safety and efficacy of Nacystelyn (20 mg b.i.d. and 40 mg b.i.d.) in patients with chronic obstructive pulmonary disease (COPD).”
(§3) NAL pulmonary administration was performed using a Dry Powder Inhaler consisting of a capsule containing NAL and a carrier, and of an inhalation device.
(§4) During the same study, sputum of COPD patients was collected at baseline (T0), after 4 weeks (w4) and after 12 weeks of treatment (T12).
(§5) The purpose of collecting sputum was to assess if NAL DPI administration could affect (increase or decrease) lung inflammation parameters in such patients. Lung inflammation may be reflected by the sputum concentration of some pro-inflammatory markers, called cytokines, such as interleukine 6 (IL-6) and interleukine 8 (IL-8) or anti-inflammatory markers, such as interleukine 10 (IL-10).
(§6) After collection of the mucus, the said mucus was centrifugated and the cytokines IL-8 and IL-6 were quantified using a validated analytical method. It should be noted that only subjects presenting a quantifiable value of cytokines at the time considered were taken into account.

interleukine 6 (IL-6) = experiment: Sputum IL-6 in 12-week placebo controlled study of NAL DPI in COPD patients; format: in vivo, human (COPD patients); conditions: for concentration in IL-6 decreased by: sputum, after 12 weeks of treatment
Description: as §1, §2, §3, §4, §5, §6

[1] = sputum of COPD patients, NAL DPI 20 mg twice a day, week 4
[2] = sputum of COPD patients, NAL DPI 20 mg twice a day, week 12
[3] = sputum of COPD patients, NAL DPI 40 mg twice a day, week 4
[4] = sputum of COPD patients, NAL DPI 40 mg twice a day, week 12

Compound: CC(=O)N[C@@H](CS)C(=O)O.NCCCC[C@H](N)C(=O)O [NAL, L-Lysine-N-Acetylcysteinate]
- effect on IL-8 levels in sputum (in words) (interleukine 8 (IL-8); sputum of COPD patients): significantly decrease the IL-8 levels in the sputum
- change in inflammatory marker IL-8, percent change versus baseline (interleukine 8 (IL-8); [1]): −13%
- change in inflammatory marker IL-8, percent change versus baseline (interleukine 8 (IL-8); [2]): −17%
- change in inflammatory marker IL-8, percent change versus baseline (interleukine 8 (IL-8); [3]): −2%
- change in inflammatory marker IL-8, percent change versus baseline (interleukine 8 (IL-8); [4]): +3%
- levels of IL-8 decreased by (interleukine 8 (IL-8); sputum, after 12 weeks of treatment, NAL 20 mg): 17%
- levels of IL-8 increased by (interleukine 8 (IL-8); sputum, after 12 weeks of treatment, NAL 40 mg): 3%
- effect on IL-6 in sputum (in words) (interleukine 6 (IL-6); sputum of COPD patients, 20 mg and 40 mg twice a day): decrease of IL-6 in the sputum of COPD patients in a dose related manner
- change in inflammatory marker IL-6, percent change versus baseline (interleukine 6 (IL-6); [1]): 24%
- change in inflammatory marker IL-6, percent change versus baseline (interleukine 6 (IL-6); [2]): −17%
- change in inflammatory marker IL-6, percent change versus baseline (interleukine 6 (IL-6); [3]): 70%
- change in inflammatory marker IL-6, percent change versus baseline (interleukine 6 (IL-6); [4]): −42%
- concentration in IL-6 decreased by (interleukine 6 (IL-6); NAL 20 mg): 17%
- concentration in IL-6 decreased by (interleukine 6 (IL-6); NAL 40 mg): 42%
